Results on eight compounds are retold here after ChEMBL document CHEMBL1155799 (Bioorg Med Chem, 2008).

Bounds are passed on as bounds.

By Ki is commonly meant the dissociation constant of the complex between target and ligand, obtained from inhibition or displacement. As a reminder, the ED50 is the midpoint of the dose-response relation. A lower ED50 goes with an effect at a small dose.

For assay [1], the target named is 5-hydroxytryptamine receptor 2A (Homo sapiens, UniProt P28223).
Description: Binding affinity to human cloned 5HT2A receptor
Assay [2] addresses T1, 5-hydroxytryptamine receptor 1A (Homo sapiens, UniProt P08908).
T1 sequence (P08908 whole entry): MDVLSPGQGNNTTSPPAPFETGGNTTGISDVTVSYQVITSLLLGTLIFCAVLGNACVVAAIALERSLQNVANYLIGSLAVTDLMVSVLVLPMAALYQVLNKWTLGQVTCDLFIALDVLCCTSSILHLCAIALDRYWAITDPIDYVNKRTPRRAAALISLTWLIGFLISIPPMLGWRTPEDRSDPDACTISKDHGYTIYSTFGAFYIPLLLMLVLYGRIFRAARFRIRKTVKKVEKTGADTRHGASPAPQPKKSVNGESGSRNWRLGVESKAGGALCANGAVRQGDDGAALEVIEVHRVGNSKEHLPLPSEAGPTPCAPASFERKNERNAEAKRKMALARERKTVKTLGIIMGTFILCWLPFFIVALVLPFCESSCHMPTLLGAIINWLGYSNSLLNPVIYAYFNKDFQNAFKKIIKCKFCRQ
Description: Binding affinity to human cloned 5HT1A receptor

In assay [3] the target is T2, 5-hydroxytryptamine receptor 2C (Homo sapiens, UniProt P28335).
T2 sequence (P28335 whole entry): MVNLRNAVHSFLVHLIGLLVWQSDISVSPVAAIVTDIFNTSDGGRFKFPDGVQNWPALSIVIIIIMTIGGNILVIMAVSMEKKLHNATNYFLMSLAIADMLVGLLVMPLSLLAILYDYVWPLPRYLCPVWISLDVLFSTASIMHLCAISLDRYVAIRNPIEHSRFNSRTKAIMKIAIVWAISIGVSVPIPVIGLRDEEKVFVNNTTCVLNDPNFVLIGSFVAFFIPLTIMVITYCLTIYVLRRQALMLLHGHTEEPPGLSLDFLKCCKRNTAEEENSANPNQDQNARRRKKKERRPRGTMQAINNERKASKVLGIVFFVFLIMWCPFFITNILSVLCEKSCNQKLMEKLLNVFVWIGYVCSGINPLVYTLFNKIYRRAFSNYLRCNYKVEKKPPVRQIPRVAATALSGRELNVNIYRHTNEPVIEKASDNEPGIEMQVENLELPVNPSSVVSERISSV
Description: Binding affinity to human cloned 5HT2C receptor

Another assay has as its target D(3) dopamine receptor (Homo sapiens, UniProt P35462).
Another assay concerns the target T3, D(4) dopamine receptor (Homo sapiens, UniProt P21917).
T3 sequence (P21917 whole entry): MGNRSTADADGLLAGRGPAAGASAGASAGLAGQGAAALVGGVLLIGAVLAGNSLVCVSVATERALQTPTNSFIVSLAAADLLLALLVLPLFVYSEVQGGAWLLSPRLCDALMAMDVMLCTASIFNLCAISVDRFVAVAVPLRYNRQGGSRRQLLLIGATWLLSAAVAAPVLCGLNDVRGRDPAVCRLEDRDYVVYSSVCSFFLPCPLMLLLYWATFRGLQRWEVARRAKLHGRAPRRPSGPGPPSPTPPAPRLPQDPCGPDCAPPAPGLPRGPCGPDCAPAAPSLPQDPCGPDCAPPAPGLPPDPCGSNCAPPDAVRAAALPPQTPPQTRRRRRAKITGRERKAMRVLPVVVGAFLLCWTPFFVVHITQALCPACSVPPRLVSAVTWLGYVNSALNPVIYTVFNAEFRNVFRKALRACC

Assay [4] deals with T4, Muscarinic acetylcholine receptor M1 (Homo sapiens, UniProt P11229).
T4 sequence (P11229 whole entry): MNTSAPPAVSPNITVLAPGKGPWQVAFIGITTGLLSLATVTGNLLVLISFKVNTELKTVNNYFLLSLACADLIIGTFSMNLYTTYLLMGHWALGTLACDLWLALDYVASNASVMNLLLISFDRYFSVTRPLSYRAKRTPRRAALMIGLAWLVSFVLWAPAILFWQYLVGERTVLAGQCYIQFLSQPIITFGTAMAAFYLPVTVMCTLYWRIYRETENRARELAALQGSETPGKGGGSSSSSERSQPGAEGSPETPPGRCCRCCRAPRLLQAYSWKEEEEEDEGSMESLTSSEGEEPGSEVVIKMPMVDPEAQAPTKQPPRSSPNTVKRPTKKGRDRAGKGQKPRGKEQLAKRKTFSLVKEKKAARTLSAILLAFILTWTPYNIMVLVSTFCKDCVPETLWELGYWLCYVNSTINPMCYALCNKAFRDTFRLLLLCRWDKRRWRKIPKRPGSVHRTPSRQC
Description: Binding affinity to human cloned muscarinic M1 receptor

The target in assay [5] is 5-hydroxytryptamine receptor 6 (Homo sapiens, UniProt P50406).
Description: Binding affinity to human cloned 5HT6 receptor
Assay [6] deals with 5-hydroxytryptamine receptor 2B (Homo sapiens, UniProt P41595).
Description: Binding affinity to human cloned 5HT2B receptor
The next assay is filed under the species Mus musculus. Put plainly: animal or person. As to conditions: Swiss Webster, 0.5 h. Type of assay: functional.
Assay [7] concerns the target Sodium-dependent dopamine transporter (Homo sapiens, UniProt Q01959).
Description: Binding affinity to human DAT

D(3) dopamine receptor, sequence (P35462 whole entry): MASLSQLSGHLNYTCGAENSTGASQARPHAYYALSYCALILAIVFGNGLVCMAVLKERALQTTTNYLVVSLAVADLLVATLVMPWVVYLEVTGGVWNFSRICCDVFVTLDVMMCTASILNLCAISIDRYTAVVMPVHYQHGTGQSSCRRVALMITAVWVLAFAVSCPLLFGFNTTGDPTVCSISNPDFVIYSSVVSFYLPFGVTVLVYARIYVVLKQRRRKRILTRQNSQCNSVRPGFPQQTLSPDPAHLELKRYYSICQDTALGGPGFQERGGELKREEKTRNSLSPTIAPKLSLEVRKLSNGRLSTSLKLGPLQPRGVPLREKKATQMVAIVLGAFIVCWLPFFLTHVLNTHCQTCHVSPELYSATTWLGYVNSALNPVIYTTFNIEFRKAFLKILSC
5-hydroxytryptamine receptor 2A, sequence (P28223 whole entry): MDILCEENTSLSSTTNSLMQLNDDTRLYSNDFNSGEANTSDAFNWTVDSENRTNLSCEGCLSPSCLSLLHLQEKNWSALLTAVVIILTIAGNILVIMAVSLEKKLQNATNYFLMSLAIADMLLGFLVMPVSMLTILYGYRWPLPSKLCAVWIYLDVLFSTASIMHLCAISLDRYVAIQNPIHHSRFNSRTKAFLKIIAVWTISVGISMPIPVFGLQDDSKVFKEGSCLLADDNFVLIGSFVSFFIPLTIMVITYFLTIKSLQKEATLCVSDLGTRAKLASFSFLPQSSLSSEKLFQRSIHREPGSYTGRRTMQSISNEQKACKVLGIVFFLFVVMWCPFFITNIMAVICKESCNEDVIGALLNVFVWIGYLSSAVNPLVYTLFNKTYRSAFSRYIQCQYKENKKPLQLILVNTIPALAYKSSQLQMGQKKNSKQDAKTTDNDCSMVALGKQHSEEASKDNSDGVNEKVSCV
5-hydroxytryptamine receptor 6, sequence (P50406 whole entry): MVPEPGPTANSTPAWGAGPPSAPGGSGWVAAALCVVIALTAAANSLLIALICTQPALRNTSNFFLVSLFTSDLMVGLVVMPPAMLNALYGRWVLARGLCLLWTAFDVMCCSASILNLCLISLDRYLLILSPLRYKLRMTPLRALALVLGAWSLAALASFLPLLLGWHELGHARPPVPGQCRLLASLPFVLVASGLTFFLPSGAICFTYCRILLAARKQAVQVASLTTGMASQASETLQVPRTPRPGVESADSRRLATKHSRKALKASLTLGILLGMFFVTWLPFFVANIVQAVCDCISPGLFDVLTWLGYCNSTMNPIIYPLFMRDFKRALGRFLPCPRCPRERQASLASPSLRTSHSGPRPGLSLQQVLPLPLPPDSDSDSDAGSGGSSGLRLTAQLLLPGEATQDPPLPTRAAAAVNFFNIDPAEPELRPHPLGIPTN
Sodium-dependent dopamine transporter, sequence (Q01959 whole entry): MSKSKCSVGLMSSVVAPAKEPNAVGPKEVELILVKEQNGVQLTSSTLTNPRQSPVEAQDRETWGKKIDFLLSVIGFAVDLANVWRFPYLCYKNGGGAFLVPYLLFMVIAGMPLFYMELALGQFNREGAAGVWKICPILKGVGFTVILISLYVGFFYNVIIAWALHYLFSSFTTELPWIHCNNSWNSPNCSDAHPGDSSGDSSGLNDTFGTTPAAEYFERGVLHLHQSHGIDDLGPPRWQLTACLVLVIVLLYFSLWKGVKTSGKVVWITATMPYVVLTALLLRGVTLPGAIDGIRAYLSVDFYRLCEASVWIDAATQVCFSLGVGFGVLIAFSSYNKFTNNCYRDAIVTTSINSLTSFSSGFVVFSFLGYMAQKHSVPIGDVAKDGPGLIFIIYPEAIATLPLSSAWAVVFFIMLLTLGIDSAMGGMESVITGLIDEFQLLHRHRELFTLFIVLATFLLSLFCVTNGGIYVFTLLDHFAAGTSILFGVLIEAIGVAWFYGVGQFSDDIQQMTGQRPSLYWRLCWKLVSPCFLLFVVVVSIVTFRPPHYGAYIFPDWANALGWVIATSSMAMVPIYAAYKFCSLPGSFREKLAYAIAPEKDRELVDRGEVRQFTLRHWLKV
5-hydroxytryptamine receptor 2B, sequence (P41595 whole entry): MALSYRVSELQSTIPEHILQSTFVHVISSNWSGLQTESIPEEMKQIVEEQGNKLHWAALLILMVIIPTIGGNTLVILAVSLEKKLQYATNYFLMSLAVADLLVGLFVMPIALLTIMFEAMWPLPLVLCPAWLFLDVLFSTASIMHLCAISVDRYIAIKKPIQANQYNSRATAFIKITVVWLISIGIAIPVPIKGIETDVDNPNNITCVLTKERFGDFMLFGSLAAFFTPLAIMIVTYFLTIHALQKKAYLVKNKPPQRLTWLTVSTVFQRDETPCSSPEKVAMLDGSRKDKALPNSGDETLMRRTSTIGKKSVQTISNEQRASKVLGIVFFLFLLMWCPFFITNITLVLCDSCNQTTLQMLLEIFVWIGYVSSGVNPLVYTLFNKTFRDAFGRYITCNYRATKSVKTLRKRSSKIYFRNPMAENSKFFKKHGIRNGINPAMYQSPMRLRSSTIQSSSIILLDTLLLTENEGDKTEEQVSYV
Description for D(3) dopamine receptor: Binding affinity to human cloned dopamine D3 receptor
Description for D(4) dopamine receptor: Binding affinity to human cloned dopamine D4 receptor
Description for Mus musculus: Blockade of apomorphine-induced climbing stereotypy in Swiss Webster mouse after 30 mins

Turning to `O=C(CCCN1C2CCC1CC(c1ccccc1)C2)c1ccc(F)cc1` (stereo not given), the results for the inhibitory constant (Ki) in assay [1], in assay [2] and in [3] were 106 nM, 414 nM and 1060 nM, respectively.
In the case of `O=C(CCCN1CCC(O)(c2ccc(Cl)cc2)C1)c1ccc(F)cc1` (single isomer, unassigned; (+)), the Ki in [2] amounted to 772 nM.
In the case of `O=C(CCCN1CC2CC1CN2c1ccc(Cl)cc1)c1ccc(F)cc1` (stereo not given), the values for the Ki on D(3) dopamine receptor and on D(4) dopamine receptor were 220 nM and 520 nM, respectively.
On to `O=C1Cc2cc(CCN3CCN(c4nsc5ccccc45)CC3)c(Cl)cc2N1` [ZIPRASIDONE], for which the Ki came to 5100 nM in assay [4], 2.5 nM in [2] and 76 nM in assay [5].
Turning to `O=C(CCCN1CCN(c2ccc(Cl)cc2)CC1)c1ccc(F)cc1`, the Ki was 90.9 nM in assay [2] and 3550 nM in assay [3].
Turning to `O=C(CCCN1CCCN(c2ccc(Cl)cc2)CC1)c1ccc(F)cc1`, the Ki in [6] is 495 nM; in [7], 1150 nM; in assay [5], 296 nM. Also, in the assay listed under Mus musculus, the 50% effect level (ED50) was put at a dose of 35.8 µmol/kg.
On to `O=C(CCCN1CC2CCC(C1)N2c1ccccc1)c1ccc(F)cc1`, for which the Ki at D(3) dopamine receptor turned out to be 600 nM; at D(4) dopamine receptor, 2100 nM.
With `O=C(CCCN1C2CCC1CC(O)(c1ccccc1)C2)c1ccc(F)cc1` (stereo not given), the figures for the inhibition constant Ki in assay [1], in [2] and in assay [3] were 12.3 nM, 37.6 nM and more than 10000 nM, respectively.
